Consider five compounds from patent US11203577B2, “Sulfonyl-structure-containing triazinone derivatives, their preparation methods and their uses in insect killing and/or bacterium killing” (Nankai University, priority 2017, dated 2021).

Structures are written as SMILES.

One data set has as its system Sclerotinia rot of colza. The data set can be described thus: In vitro fungicidal activity, PDA colony diameter. It counts as cell-based. As to conditions: 96 h, 50 mg/kg, inhibition of colony diameter, read-out: Fungicidal activity (%) Sclerotinia rot of colza.
Another data set deals with Maize borers. As to the kind of experiment: Test of insecticidal activity against maize borers (leaf immersion). Particulars: read-out: Mortalities (%) Maize borers.
In the next data set the test system is Wheat sheath blight. The data set can be described thus: In vitro fungicidal activity, PDA colony diameter. As to conditions: 50 mg/kg, inhibition of colony diameter; read-out: Fungicidal activity (%) Wheat sheath blight. It counts as cell-based.
The next data set has as its system Armyworms. As to the kind of experiment: Test of insecticidal activity against armyworms (leaf immersion). Particulars: 600 mg/kg, 3-4 days.
The test system of another data set is Cucumber fusarium wilt. As to the kind of experiment: In vitro fungicidal activity, PDA colony diameter. The class given is cell-based. As to conditions: 96 h, 50 mg/kg, inhibition of colony diameter, read-out: Fungicidal activity (%) Cucumber fusarium wilt.
Data set [1] relates to bean aphides (Aphis laburni Kaltenbach). The data set can be described thus: Test of insecticidal activity against aphides (leaf immersion, checked after 96 h). As to conditions: for mortality at 2.5 mg/kg / mortality at 5 mg/kg / mortality at 10 mg/kg / mortality at 100 mg/kg / mortality at 600 mg/kg: Aphis, 96 h, read-out: Mortalities (%) against aphides; for insecticidal activity against aphides compared with pymetrozine: 5 mg/kg.

The subject of the next data set is Rice bakanae disease. As to the kind of experiment: In vitro fungicidal activity, PDA colony diameter. It counts as cell-based. Particulars: 50 mg/kg, inhibition of colony diameter; read-out: Fungicidal activity (%) Rice bakanae disease.
The test system of data set [2] is Capsicum phytophthora blight. The data set can be described thus: In vitro fungicidal activity, PDA colony diameter. It counts as cell-based. Particulars: 96 h. As to the method:
(§1) Here, the test is described in an example of Alternaria solani; it can be replaced by other fungi.
(§2) In vitro testing method: Alternaria solani is inoculated to a PDA culture medium and cultured for 7 days, a fungus dish with a diameter of […] is prepared on the periphery of the colony with a punch and inoculated to a PDA culture medium that contains pesticide at a concentration of 50 mg/kg and a PDA culture medium that doesn't contain the pesticide, and are cultured for 4 days respectively; then, the colony diameters are measured, and the inhibition percentages of the pesticides are calculated by comparing with the control sample.

A further data set deals with Apple ring rot. The data set can be described thus: In vitro fungicidal activity, PDA colony diameter. Particulars: inhibition of colony diameter. The class given is cell-based. As to the method: as §1, §2
For a further data set, the system named is Cotton bollworms. The data set can be described thus: Test of insecticidal activity against cotton bollworms (pesticide mixed into feedstuff). Particulars: read-out: Mortalities (%) Cotton bollworms.
Data set [3] deals with Corn southern leaf blight. As to the kind of experiment: In vitro fungicidal activity, PDA colony diameter. It counts as cell-based. As to conditions: 50 mg/kg, inhibition of colony diameter; read-out: Fungicidal activity (%) Corn southern leaf blight.
For another data set, the system named is Rice sheath blight. The data set can be described thus: In vitro fungicidal activity, PDA colony diameter. It counts as cell-based. As to conditions: 50 mg/kg, inhibition of colony diameter; read-out: Fungicidal activity (%) Rice sheath blight.
The subject of the next data set is Potato late blight. As to the kind of experiment: microbe, parasite or virus in culture. The class given is cell-based. Particulars: Phytophthora infestans, 96 h, read-out: Fungicidal activity (%) Potato late blight.
A further data set concerns Wheat head blight. The data set can be described thus: whole plant or invertebrate. It counts as cell-based. As to conditions: Triticum aestivum, read-out: Fungicidal activity (%) Wheat head blight.
For data set [4], the system named is mosquito larvae (Culer pipiens pallens). The data set can be described thus: Test of insecticidal activity against mosquito larvae (checked after 24 h). Particulars: 24 h, read-out: Mortalities (%) against mosquito larvae.
For the next data set, the system named is Tomato early blight. The data set can be described thus: In vitro fungicidal activity, PDA colony diameter. The class given is cell-based, Alternaria solani. Particulars: 50 mg/kg, inhibition of colony diameter; read-out: Fungicidal activity (%) Tomato early blight.
In data set [5] the test system is Cercospora brown spot of peanut. The data set can be described thus: In vitro fungicidal activity, PDA colony diameter. The class given is cell-based. As to conditions: 96 h, 50 mg/kg, inhibition of colony diameter, read-out: Fungicidal activity (%) Cercospora brown spot of peanut.
The subject of the next data set is Watermelon anthracnose. The data set can be described thus: In vitro fungicidal activity, PDA colony diameter. The class given is cell-based. As to conditions: 50 mg/kg, inhibition of colony diameter; read-out: Fungicidal activity (%) Watermelon anthracnose.

Procedure for Cotton bollworms: Method of testing against cotton bollworms: the pesticide is mixed into the feedstuff, i.e., 3 mL prepared solution is added into about 27 g freshly prepared feedstuff; thus, required concentration is obtained by diluting by 10 times.

Consider `COc1ccc(S(=O)(=O)NN2CC(C)=NNC2=O)cc1` [Ia-14, 4-methoxy-N-(6-methyl-3-oxo-2,3-dihydro-1,2,4-triazin-4(5H)-yl)-benzenesulfonamide], for which the inhibition of growth at 50 mg/kg with Sclerotinia rot of colza came out at 15.8%; with Cucumber fusarium wilt it was 8.8%; in data set [2], 13.9%; in the data set on Potato late blight it was 3.1%; in [5], 12%. In addition, the mortality at 600 mg/kg in the data set on Maize borers is 0%; in data set [1], 100%; with Cotton bollworms, 0%. Also, the inhibition at 50 mg/kg with Wheat sheath blight came to 21.7%; in the data set on Rice bakanae disease it was 10.3%; in the data set with Apple ring rot, 33.8%; in data set [3] it was 9.3%; with Rice sheath blight, 11.6%; in the data set on Wheat head blight, 16.2%. Also, the inhibition at 50 mg/kg with Tomato early blight was found to be 13.4%; with Watermelon anthracnose, 26.2%. In addition, the “Mortalities (%) Armyworms” value in the data set with Armyworms came out at 0%. Besides, the mortality at 2.5 mg/kg in data set [1] stood at 35%. Further, the mortality at 5 mg/kg in data set [1] was 100%; in [4] it was 95%. Besides, the mortality at 10 mg/kg in data set [1] and in [4] was 100% throughout. For the same compound, the mortality at 100 mg/kg in data set [1] was 100%. The mortality at 2 mg/kg in data set [4] was 10%.
Turning to `CC1=NNC(=O)N(NS(=O)(=O)c2ccc(C(C)(C)C)cc2)C1` [Ia-15, 4-tert-butyl-N-(6-methyl-3-oxo-2,3-dihydro-1,2,4-triazin-4(5H)-yl)-benzenesulfonamide], the inhibition of growth at 50 mg/kg with Sclerotinia rot of colza was 15.8%; with Cucumber fusarium wilt it was 8.8%; in data set [2] it was 5.6%; in the data set on Potato late blight, 9.7%; in data set [5] it was 12%. For the same compound, the results for the mortality at 600 mg/kg (in the data set on Maize borers; in data set [1]; in the data set on Cotton bollworms) were 45%, 100% and 40%, respectively. The inhibition at 50 mg/kg in the data set with Wheat sheath blight worked out at 9.3%; in the data set with Rice bakanae disease, 24.1%; in the data set with Apple ring rot, 16.2%; in [3], 9.3%; in the data set with Rice sheath blight, 17.4%; with Wheat head blight it was 13.5%. In addition, the inhibition at 50 mg/kg in the data set on Tomato early blight was found to be 20.9%; in the data set with Watermelon anthracnose it was 14.7%. In addition, in the data set with Armyworms, the “Mortalities (%) Armyworms” value worked out at 60%. For the same compound, in [1], the mortality at 2.5 mg/kg was found to be 10%. The mortality at 5 mg/kg in data set [1] stood at 85%; in [4], 100%. In addition, the mortality at 10 mg/kg in data set [1] and in data set [4] was 100% each time. In [1], the mortality at 100 mg/kg was 100%. Besides, the mortality at 2 mg/kg in data set [4] was 40%.
In the case of `CC1=NNC(=O)N(NS(=O)(=O)c2ccccc2F)C1` [Ia-16, 2-fluoro-N-(6-methyl-3-oxo-2,3-dihydro-1,2,4-triazin-4(5H)-yl)-benzenesulfonamide], the inhibition of growth at 50 mg/kg amounted to 15.8% in the data set on Sclerotinia rot of colza; 2.9% in the data set on Cucumber fusarium wilt; 13.9% in [2]; 3.1% in the data set on Potato late blight; 8% in data set [5]. Further, the mortality at 600 mg/kg came out at 15% with Maize borers, 100% in [1] and 10% in the data set on Cotton bollworms. The inhibition at 50 mg/kg in the data set with Wheat sheath blight came to 14.3%; with Rice bakanae disease, 27.6%; with Apple ring rot, 17.6%; in [3] it was 0%; in the data set with Rice sheath blight it was 11.6%; with Wheat head blight, 10.8%. Further, the inhibition at 50 mg/kg in the data set on Tomato early blight stood at 13.4%; with Watermelon anthracnose, 8.2%. In the data set on Armyworms, the “Mortalities (%) Armyworms” value was 10%. In addition, the “insecticidal activity against aphides compared with pymetrozine” value in [1] is “equivalent to the insecticidal activity of pymetrozine”. For the same compound, the mortality at 5 mg/kg came to 30% in [1] and 100% in data set [4]. Moreover, the mortality at 10 mg/kg in data set [1] stood at 90%; in [4], 100%. For the same compound, the mortality at 100 mg/kg in data set [1] turned out to be 100%. Also, the mortality at 2 mg/kg in data set [4] came out at 30%.
For the compound `CC1=NNC(=O)N(NS(=O)(=O)c2cccc(F)c2)C1` [Ia-17, 3-fluoro-N-(6-methyl-3-oxo-2,3-dihydro-1,2,4-triazin-4(5H)-yl)-benzenesulfonamide], the inhibition of growth at 50 mg/kg with Sclerotinia rot of colza is 21%; in the data set on Cucumber fusarium wilt it was 5.9%; in data set [2], 13.9%; in the data set with Potato late blight, 3.1%; in data set [5] it was 16%. Besides, the mortality at 600 mg/kg in the data set on Maize borers came to 10%; in [1], 100%; in the data set with Cotton bollworms, 5%. Also, the inhibition at 50 mg/kg in the data set on Wheat sheath blight stood at 14.3%; in the data set on Rice bakanae disease, 13.8%; with Apple ring rot, 10.8%; in data set [3] it was 0%; with Rice sheath blight, 20.9%; in the data set on Wheat head blight, 35.1%. The inhibition at 50 mg/kg turned out to be 13.4% with Tomato early blight and 8.2% in the data set with Watermelon anthracnose. The “Mortalities (%) Armyworms” value in the data set on Armyworms was 5%. For the same compound, the “insecticidal activity against aphides compared with pymetrozine” value in data set [1] is “equivalent to the insecticidal activity of pymetrozine”. Besides, the mortality at 5 mg/kg in [1] was 35%; in [4], 100%. Also, the mortality at 10 mg/kg in [1] was found to be 85%; in [4], 100%. In addition, the mortality at 100 mg/kg in data set [1] came to 100%. Also, the mortality at 2 mg/kg in [4] worked out at 60%.
`CC1=NNC(=O)N(NS(=O)(=O)c2ccc(F)cc2)C1` [Ia-18, 4-fluoro-N-(6-methyl-3-oxo-2,3-dihydro-1,2,4-triazin-4(5H)-yl)-benzenesulfonamide]: the inhibition of growth at 50 mg/kg in the data set on Sclerotinia rot of colza stood at 21%; in the data set with Cucumber fusarium wilt it was 14.7%; in data set [2], 5.6%; in the data set with Potato late blight, 18.7%; in data set [5], 12%. In addition, the figures for the mortality at 600 mg/kg (in the data set with Maize borers; in [1]; with Cotton bollworms) were 25%, 100% and 0%, respectively. The inhibition at 50 mg/kg in the data set on Wheat sheath blight was found to be 4.3%; in the data set on Rice bakanae disease it was 20.7%; in the data set with Apple ring rot it was 8.1%; in data set [3] it was 3.1%; in the data set with Rice sheath blight, 22.1%; in the data set on Wheat head blight, 2.7%. Besides, the inhibition at 50 mg/kg with Tomato early blight stood at 11.9%; in the data set on Watermelon anthracnose it was 14.7%. In the data set on Armyworms, the “Mortalities (%) Armyworms” value is on record as 50%. The “insecticidal activity against aphides compared with pymetrozine” value in [1] is listed as “equivalent to the insecticidal activity of pymetrozine”. Also, the mortality at 5 mg/kg in data set [1] is 45%; in data set [4] it was 100%. The mortality at 10 mg/kg in data set [1] and in data set [4] was 100% each time. Also, the mortality at 100 mg/kg in data set [1] came out at 100%. Further, the mortality at 2 mg/kg in data set [4] was found to be 40%.
